Test results published in US11464770B2, “Anticancer pharmaceutical composition” (NATIONAL CANCER CENTER, priority 2016, dated 2022).
Where two headings read alike, the source gives them in different places.

Columns and labels:
[1] = tested on: prostate cancer cell lines (e.g. DU145/TXR); assay: Cell based assay, cell viability (CellTiter-Glo), prostate cancer cell lines; settings: Homo sapiens, 72 hours treatment, final concentration 0 to 2 μM
Experimental: (§1) Commercially available bladder cancer, prostate cancer, lung cancer, breast cancer, blood cancer, pancreatic cancer, colorectal cancer, brain cancer, neuroblastoma, melanoma, liver cancer, cervical carcinoma, ovarian cancer, renal cancer, and papilloma cell lines were each treated with trypsin-EDTA and cultured, followed by being seeded in each well of a 96 well plate. After 24 hours of treatment at constant temperature, the respective cells were treated with the candidate compound so that a final concentration became 0 to 2 μM. The treated cells were additionally cultured for 72 hours, and cell viability was measured by using an ATP detection method (CellTiter-Glo® Luminescent Cell Viability Assay, Promega).

renal cancer cell lines = assay: Cell based assay, cell viability (CellTiter-Glo), renal cancer cell lines; settings: Homo sapiens; ACHN cells
Experimental: as §1

[2] = CWR22 cells, read-out: IC50, prostate cancer cell line CWR22
[3] = DU-145, DU145/TXR cells, read-out: IC50, prostate cancer cell line DU145/TXR
[4] = DU-145, DU145 cells, read-out: IC50, prostate cancer cell line DU145
[5] = LNcap cells, read-out: IC50, prostate cancer cell line LNcap
[6] = PC-3 cells, read-out: IC50, prostate cancer cell line PC-3

Compound	IC50 [1, 2]	IC50 [1, 3]	IC50 [1, 4]	IC50 [1, 5]	IC50 [1, 6]	IC50 (renal cancer cell lines)
CC(=O)c1c(SCc2ccccc2)nc2c(Br)ccc(Cl)c2c1O [Compound 52, 1-(2-(benzylthio)-8-bromo-5-chloro-4-hydroxyquinolin-3-yl)ethan-1-one]	> 2 µM	> 2 µM	> 2 µM	> 2 µM	> 2 µM	> 2 µM
CC(=O)c1c([S+]([O-])Cc2ccccc2)nc2c(Br)ccc(Cl)c2c1O (stereo not drawn) [Compound 53, 1-(2-(benzylsulfinyl)-8-bromo-5-chloro-4-hydroxyquinolin-3-yl)ethan-1-one]	> 2 µM	> 2 µM	> 2 µM	> 2 µM	–	> 2 µM
CC(=O)c1c(S(=O)(=O)Cc2ccccc2)nc2c(Br)ccc(Cl)c2c1O [Compound 54, 1-(2-(benzylsulfonyl)-8-bromo-5-chloro-4-hydroxyquinolin-3-yl)ethan-1-one]	> 2 µM	> 2 µM	> 2 µM	> 2 µM	> 2 µM	> 2 µM
CC(=O)c1c([S+]([O-])Cc2ccccc2C#N)[nH]c2c(Br)ccc(Cl)c2c1=O (stereo not drawn) [Compound 58, 2-(((3-acetyl-8-bromo-5-chloro-4-oxo-1,4-dihydroquinolin-2-yl)sulfinyl)methyl)benzonitrile]	1.2 µM	1.21 µM	1.23 µM	1.44 µM	1.3 µM	> 2 µM
CC(=O)c1c(S)[nH]c2c(Br)ccc(Cl)c2c1=O [Compound 62, 3-acetyl-8-bromo-5-chloro-2-mercaptoquinolin-4(1H)-one]	> 2 µM	> 2 µM	> 2 µM	> 2 µM	> 2 µM	> 2 µM
CC(=O)c1c([S+]([O-])Cc2ccc(C(=O)c3ccccc3)cc2)[nH]c2c(Br)ccc(Cl)c2c1=O (stereo not drawn) [Compound 63, 3-acetyl-2-((4-benzoylbenzyl)sulfinyl)-8-bromo-5-chloroquinolin-4(1H)-one]	> 2 µM	> 2 µM	> 2 µM	> 2 µM	–	> 2 µM
CC(=O)c1c([S+]([O-])CC#N)[nH]c2c(Br)ccc(Cl)c2c1=O (stereo not drawn) [Compound 65, 2-((3-acetyl-8-bromo-5-chloro-4-oxo-1,4-dihydroquinolin-2-yl)sulfinyl)acetonitrile]	> 2 µM	> 2 µM	> 2 µM	> 2 µM	> 2 µM	> 2 µM
CC(=O)c1c(S/C=C\C(=O)O)[nH]c2c(Br)ccc(Cl)c2c1=O [Compound 67, (Z)-3-((3-acetyl-8-bromo-5-chloro-4-oxo-1,4-dihydroquinolin-2-yl)thio)acrylic acid]	> 2 µM	> 2 µM	> 2 µM	> 2 µM	> 2 µM	> 2 µM
CC(=O)c1c([S+]([O-])Cc2ccc(S(F)(F)(F)(F)F)cc2)[nH]c2c(Br)ccc(Cl)c2c1=O (stereo not drawn) [Compound 68, 3-acetyl-8-bromo-5-chloro-2-((4-(pentafluoro-16-sulfanyl)benzyl)sulfinyl)quinolin-4(1H)-one]	1.62 µM	0.94 µM	0.83 µM	> 2 µM	1.24 µM	> 2 µM

Results, then the compound that gave them:

IC50 [1, 2]	IC50 [1, 3]	IC50 [1, 4]	IC50 [1, 5]	IC50 [1, 6]	IC50 (renal cancer cell lines)	Compound
> 2 µM	> 2 µM	> 2 µM	> 2 µM	> 2 µM	> 2 µM	CC(=O)c1c(SCc2cc(F)cc(F)c2)[nH]c2c(Br)ccc(Cl)c2c1=O [Compound 45, 3-acetyl-8-bromo-5-chloro-2-((3,5-difluorobenzyl)thio)quinolin-4(1H)-one]
> 2 µM	> 2 µM	> 2 µM	> 2 µM	> 2 µM	> 2 µM	CC(=O)c1c(SCc2cccc(I)c2)[nH]c2c(Br)ccc(Cl)c2c1=O [Compound 47, 3-acetyl-8-bromo-5-chloro-2-((3-iodobenzyl)thio)quinolin-4(1H)-one]
> 2 µM	1.57 µM	> 2 µM	> 2 µM	–	> 2 µM	CC(=O)c1c([S+]([O-])Cc2cccc(I)c2)[nH]c2c(Br)ccc(Cl)c2c1=O (stereo not drawn) [Compound 48, 3-acetyl-8-bromo-5-chloro-2-((3-iodobenzyl)sulfinyl)quinolin-4(1H)-one]
> 2 µM	> 2 µM	> 2 µM	> 2 µM	> 2 µM	> 2 µM	CC(=O)c1c(SCc2cccc(F)c2)[nH]c2c(Br)ccc(Cl)c2c1=O [Compound 49, 3-acetyl-8-bromo-5-chloro-2-((3-fluorobenzyl)thio)quinolin-4(1H)-one]
> 2 µM	> 2 µM	> 2 µM	> 2 µM	> 2 µM	> 2 µM	COCSc1[nH]c2c(Br)ccc(Cl)c2c(=O)c1C(C)=O [Compound 61, 3-acetyl-8-bromo-5-chloro-2-((methoxymethyl)thio)quinolin-4(1H)-one]
> 2 µM	> 2 µM	> 2 µM	> 2 µM	> 2 µM	> 2 µM	CC(=O)c1c(SCC#N)[nH]c2c(Br)ccc(Cl)c2c1=O [Compound 66, 2-((3-acetyl-8-bromo-5-chloro-4-oxo-1,4-dihydroquinolin-2-yl)thio)acetonitrile]
